Earlier results in patent US20030125243A1, “Synthesis of cyclic peptides” (priority 2000, published 2003).

Target: αvβ3 (Homo sapiens, UniProt P05106+P06756)
Conditions: background statement, Haubner et al. 1996

Chain of αvβ3 (P06756 31-889 limits assumed): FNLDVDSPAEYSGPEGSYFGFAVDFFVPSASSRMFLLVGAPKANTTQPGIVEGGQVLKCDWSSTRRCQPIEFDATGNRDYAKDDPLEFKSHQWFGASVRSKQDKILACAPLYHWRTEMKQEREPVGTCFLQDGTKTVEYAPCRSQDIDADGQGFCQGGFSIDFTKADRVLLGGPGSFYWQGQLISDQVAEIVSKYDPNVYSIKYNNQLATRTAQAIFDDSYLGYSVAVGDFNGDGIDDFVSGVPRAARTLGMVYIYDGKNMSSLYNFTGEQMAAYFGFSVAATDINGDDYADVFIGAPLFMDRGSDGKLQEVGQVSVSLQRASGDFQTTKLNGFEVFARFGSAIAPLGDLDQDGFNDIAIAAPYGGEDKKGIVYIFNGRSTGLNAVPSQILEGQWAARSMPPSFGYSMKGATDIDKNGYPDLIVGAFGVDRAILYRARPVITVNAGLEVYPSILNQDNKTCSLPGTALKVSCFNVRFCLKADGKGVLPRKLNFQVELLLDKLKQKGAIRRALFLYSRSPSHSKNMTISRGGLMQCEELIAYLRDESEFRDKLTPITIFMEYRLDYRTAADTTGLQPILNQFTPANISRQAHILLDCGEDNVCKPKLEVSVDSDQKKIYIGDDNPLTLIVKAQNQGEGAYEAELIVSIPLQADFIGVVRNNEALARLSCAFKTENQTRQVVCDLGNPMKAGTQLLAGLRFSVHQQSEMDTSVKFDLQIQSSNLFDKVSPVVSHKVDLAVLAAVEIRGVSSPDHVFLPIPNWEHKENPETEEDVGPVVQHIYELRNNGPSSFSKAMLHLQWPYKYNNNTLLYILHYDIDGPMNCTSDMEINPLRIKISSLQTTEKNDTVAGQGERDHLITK
Chain of αvβ3 (P06756 891-1048 partner limits assumed): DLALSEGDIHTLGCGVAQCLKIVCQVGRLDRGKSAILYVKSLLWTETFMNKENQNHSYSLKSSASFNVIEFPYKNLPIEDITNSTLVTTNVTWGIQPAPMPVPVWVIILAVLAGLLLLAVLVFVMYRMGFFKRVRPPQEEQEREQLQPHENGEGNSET
Chain of αvβ3 (P05106 27-788): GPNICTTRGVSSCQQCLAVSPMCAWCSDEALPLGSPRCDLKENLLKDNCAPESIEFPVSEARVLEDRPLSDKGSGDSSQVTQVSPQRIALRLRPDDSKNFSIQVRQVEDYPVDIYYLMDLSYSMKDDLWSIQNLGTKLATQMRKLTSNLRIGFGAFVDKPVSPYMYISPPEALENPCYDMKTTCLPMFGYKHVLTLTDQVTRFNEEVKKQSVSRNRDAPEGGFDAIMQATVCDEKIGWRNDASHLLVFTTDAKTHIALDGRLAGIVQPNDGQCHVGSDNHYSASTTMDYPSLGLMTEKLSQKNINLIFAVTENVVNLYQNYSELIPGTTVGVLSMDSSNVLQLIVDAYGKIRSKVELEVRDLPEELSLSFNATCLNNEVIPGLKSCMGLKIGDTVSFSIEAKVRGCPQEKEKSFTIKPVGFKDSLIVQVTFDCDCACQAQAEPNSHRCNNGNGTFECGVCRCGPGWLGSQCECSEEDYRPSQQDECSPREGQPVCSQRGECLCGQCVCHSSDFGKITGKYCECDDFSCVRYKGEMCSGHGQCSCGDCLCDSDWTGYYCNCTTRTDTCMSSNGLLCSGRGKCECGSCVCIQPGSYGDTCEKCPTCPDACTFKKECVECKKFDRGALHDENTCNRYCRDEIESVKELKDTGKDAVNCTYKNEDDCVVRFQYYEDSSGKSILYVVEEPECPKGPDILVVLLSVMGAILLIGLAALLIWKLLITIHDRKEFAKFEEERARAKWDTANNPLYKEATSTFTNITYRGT

For cRGDfK, the “binding to αvβ3 (potency and selectivity)” value is given as “high potency and selectivity”.
